Experimental data published in patent publication US20080125406A1, “Method for Treating Primary and Secondary Forms of Glaucoma” (priority 2005, published 2008).
Several values for one entry are separate records, joined by “and”; a condition that tells them apart may be missing. Identical values can stand only once.

Assays:
[1] = system: IOP of patients with glaucoma caused by intravitreal injections of glucocorticoids; assay: Single administration of anecortave acetate in patients with glaucoma caused by intravitreal glucocorticoids, Example 3; format: in vivo, human (patients)
Text: All patients were on maximal tolerated medical therapy for glaucoma and continued on their pre-study medications for the duration of the study.
In this group of eight eyes, three of which had prior intraocular surgery, and all of which were on at least three different types of glaucoma medications (maximum 6 medications and a mean of 4.1 different drug classes) the IOP decrease was seen as early as one week (mean 11.4 mm Hg), and appeared to reach a maximum decrease at three weeks (mean 16.4 mm Hg). FIG. 3 illustrates the decrease in IOP observed in these patients for twenty months.

[2] = system: IOP elevation associated with topical dexamethasone; conditions: topical administration, rabbits; cited from earlier work
[3] = system: myocilin expression in trabecular meshwork cells; conditions: cultured trabecular meshwork cells; cited from earlier work
[4] = system: IOP of patients; assay: Randomized dose study of anecortave acetate AJD 3, 15, 30 mg vs vehicle, Example 6; format: in vivo, human (patients)
Method: Eligible patients were randomized into four groups to receive AJD as follows: • Anecortave acetate vehicle, 0.5 mL (21 patients) • Anecortave acetate 3 mg (0.5 mL, 0.6% suspension) (22 patients) • Anecortave acetate 15 mg (0.5 mL, 3% suspension) (20 patients) • Anecortave acetate 30 mg (0.5 mL, 6% suspension) (22 patients).
The site of the AJD injection was 3-5 mm from the limbus, inferiorly (between 4 and 8 o'clock, FIG. 1), and the drug was injected slowly (30-90 sec) using a 30 gauge needle.

[5] = system: IOP of patients with primary open angle glaucoma; assay: Single anterior juxtascleral depot (AJD) of anecortave acetate in glaucoma patients, Example 2; format: in vivo, human (patients); conditions: single ~24 mg AJD
Text: Methods: An investigator IND and IRB approval was obtained. All patients gave informed consent. […] Prior glaucoma medications were not changed throughout study. Results: Six subjects with glaucoma and IOP≧23 mmHg (POAG [4], PDS [1], PXF [1]) mean age 59+/−8 years. Mean C/D ratio 0.8+/−0.2. Prior glaucoma medications included prostaglandins, beta blockers and/or alpha agonists (four on 1, one on 3, and one on 4). Mean pretreatment IOP was 31.3+/−11.3 mmHg. […] Patients were followed for twelve (12) months. The IOP-lowering effects peaked at approximately one month. The duration of effectiveness of the anecortave acetate was at least twelve (12) months. […] Treatment with prior glaucoma medications was discontinued for two patients due to the surprising IOP-lowering effects of the juxtasclerally administered anecortave acetate. This new method of treatment obviates problems with eye drops and many issues with compliance. Clinically meaningful additional medium-term IOP reduction is possible with a single anterior juxtascleral depot injection of anecortave acetate, much more than presently obtained with any currently available adjunctive medications.

[6] = system: IOP of Dutch Belted rabbits having elevated IOP; assay: Brinzolamide anterior sub-Tenon's or topical administration in rabbits with elevated IOP, Example 4; format: in vivo; conditions: for mean percent IOP change from baseline compared to BSS control: over 7 days
Method: Eyes of Dutch Belted rabbits having elevated IOP were injected in the anterior segment with a carbonic anhydrase inhibitor.
Methods: Baseline IOP was measured daily for 5 days and averaged. Seven rabbits received one anterior sub-Tenon's capsule administration of 800 μl of a non-optimized 1% ophthalmic suspension of brinzolamide (AZOPT®). Seven rabbits received a 1% ophthalmic suspension of brinzolamide (AZOPT®) delivered topically once per day for seven days. Seven rabbits received one anterior sub-Tenon's administration of 800 μl of BSS®. IOP was monitored daily at 2 hours after topical drops were administered, for seven days, and weekly thereafter until IOP measurements remained the same as baseline for two measurements. […] Mean pretreatment IOP was 27.41 mm Hg. Mean change in IOP for this group was +0.18 mm Hg. Rabbits receiving either daily topical administration or subtenon's injection of brinzolamide experienced sustained lowering of IOP. For the topical administration group mean pretreatment IOP was 28.37 mm Hg. Mean change in IOP for this group was −2.48 mm Hg. […] For the group receiving one anterior subtenon's administration of a 1% brinzolamide ophthalmic suspension the mean pretreatment IOP was 27.44 mm Hg. Mean change in IOP for this group was −1.85 mm Hg. […] (See FIG. 4). […] Longer duration of action of the brinzolamide suspension from the subtenon's capsule could be achieved using higher concentration suspensions (e.g. 5% or 10%) or via encapsulation in sustained release dose forms such as microspheres.

[7] = system: IOP; conditions: intravitreal injection (Singh et al. 2004); cited from earlier work
[8] = mean pretreatment IOP 31.3+/-11.3 mmHg

CC(=O)OCC(=O)[C@@]1(O)CC[C@H]2[C@@H]3CCC4=CC(=O)CC[C@]4(C)C3=CC[C@@]21C [anecortave acetate, 4, 9(11)-pregnadien-17∝,21-diol-3,20-dione-21-acetate]
IOP, individual eyes, 1 week ([1]; 1 week after single ~24 mg, baselines 34-57): 30 mm Hg (2×) and 34 mm Hg (2×) and 24 mm Hg (2×) and 23 mm Hg
Mean IOP, 1 week ([1]; 1 week, mean baseline 40.125): 28.43 mm Hg
IOP, individual eyes, 2 mon ([1]; 2 mon after single ~24 mg): 30 mm Hg and 24 mm Hg and 16 mm Hg and 19 mm Hg and 23 mm Hg
Mean IOP, 2 mon ([1]; 2 mon, mean baseline 40.125): 22 mm Hg
IOP, individual eyes, 2 weeks ([1]; 2 weeks after single ~24 mg, baselines 34-57): 28 mm Hg (2×) and 32 mm Hg and 19 mm Hg (2×) and 23 mm Hg and 35 mm Hg
Mean IOP, 2 weeks ([1]; 2 weeks, mean baseline 40.125): 24.8 mm Hg
IOP, individual eyes, 3 mon ([1]; 3 mon after single ~24 mg): 32 mm Hg and 18 mm Hg (2×) and 21 mm Hg and 19 mm Hg
Mean IOP, 3 mon ([1]; 3 mon, mean baseline 40.125): 19.3 mm Hg
IOP, individual eyes, 3 weeks ([1]; 3 weeks after single ~24 mg): 30 mm Hg and 17 mm Hg and 19 mm Hg (2×) and 37 mm Hg
Mean IOP, 3 weeks ([1]; 3 weeks, mean baseline 40.125): 24.4 mm Hg
IOP, individual eyes, 4 mon ([1]; 4 mon after single ~24 mg): 17 mm Hg and 16 mm Hg and 23 mm Hg and 21 mm Hg
Mean IOP, 4 mon ([1]; 4 mon, mean baseline 40.125): 20 mm Hg
IOP, individual eyes, 4 weeks ([1]; 4 weeks after single ~24 mg): 30 mm Hg (2×) and 28 mm Hg and 31 mm Hg and 14 mm Hg and 21 mm Hg and 19 mm Hg and 36 mm Hg
Mean IOP, 4 weeks ([1]; 4 weeks, mean baseline 40.125): 26.1 mm Hg
IOP, individual eyes, 5 mon ([1]; 5 mon after single ~24 mg): 15 mm Hg and 17 mm Hg and 21 mm Hg and 22 mm Hg
Mean IOP, 5 mon ([1]; 5 mon, mean baseline 40.125): 20 mm Hg
IOP, individual eyes, 6 mon ([1]; 6 mon after single ~24 mg): 19 mm Hg (3×) and 15 mm Hg
Mean IOP, 6 mon ([1]; 6 mon, mean baseline 40.125): 17.6 mm Hg
IOP, individual eyes, 6.2 mon ([1]; 6.2 mon after single ~24 mg): 26 mm Hg
IOP, individual eyes, 6.5 mon ([1]; 6.5 mon after single ~24 mg): 38 mm Hg
IOP, individual eyes, 7 mon ([1]; 7 mon after single ~24 mg): 17 mm Hg and 18 mm Hg (2×)
Mean IOP, 7 mon ([1]; 7 mon, mean baseline 40.125): 17.6 mm Hg
Mean IOP, 8 mon ([1]; 8 mon): 26.5 mm Hg
IOP, individual eyes, 8 mon ([1]; 8 mon after single ~24 mg): 31 mm Hg and 22 mm Hg
Mean IOP, 9 mon ([1]; 9 mon): 17.3 mm Hg
IOP, individual eyes, 9 mon ([1]; 9 mon after single ~24 mg): 15 mm Hg and 19 mm Hg and 18 mm Hg
Mean IOP, 12 mon ([1]; 12 mon): 19.6 mm Hg
IOP, individual eyes, 12 mon ([1]; 12 mon after single ~24 mg): 15 mm Hg and 22 mm Hg (2×)
Mean IOP, 13 mon ([1]; 13 mon): 19.6 mm Hg
IOP, individual eyes, 13 mon ([1]; 13 mon after single ~24 mg): 18 mm Hg and 22 mm Hg and 19 mm Hg
Mean IOP, 14 mon ([1]; 14 mon): 25.5 mm Hg
IOP, individual eyes, 14 mon ([1]; 14 mon after single ~24 mg): 25 mm Hg and 26 mm Hg
Mean IOP, 15 mon ([1]; 15 mon): 24 mm Hg
IOP, individual eyes, 15 mon ([1]; 15 mon after single ~24 mg): 26 mm Hg and 22 mm Hg
Mean IOP, 17 mon ([1]; 17 mon): 18.5 mm Hg
IOP, individual eyes, 17 mon ([1]; 17 mon after single ~24 mg): 19 mm Hg and 18 mm Hg
Mean IOP, 18 mon ([1]; 18 mon): 18 mm Hg
IOP, individual eyes, 18 mon ([1]; 18 mon after single ~24 mg): 19 mm Hg and 17 mm Hg
IOP, individual eyes, 20 mon ([1]; 20 mon after single ~24 mg): 16 mm Hg
IOP decrease in all eyes ([1]; eight eyes, single ~24 mg): All eyes had marked IOP decrease
mean IOP decrease at one week ([1]; eight eyes, single ~24 mg): 11.4 mm Hg
mean IOP decrease at three weeks (maximum decrease) ([1]; eight eyes, single ~24 mg): 16.4 mm Hg
IOP decrease in one eye at 2 months ([1]; eye that needed filtration surgery, resultant IOP 30 mm Hg): 45%
time for which recurrence of elevated IOP was prevented ([1]; remaining five eyes, IOP elevation due to triamcinolone reversed): up to 12 months
adverse events ([1]; single ~24 mg): without adverse events
duration of IOP reductions ([1]; single ~24 mg): at least 6 months
patients avoiding glaucoma filtration surgery ([1]; single ~24 mg): 75%
effect on IOP elevation associated with topical dexamethasone [2]: decreases the IOP elevation
effect on dexamethasone induced myocilin expression [3]: inhibition
patients who maintained an IOP of ≦21 mm Hg for 3 months ([4]; 3 mg group (22 patients)): 7 patients
patients who maintained an IOP of ≦21 mm Hg for 3 months ([4]; 15 mg group (20 patients)): 6 patients
patients who maintained an IOP of ≦21 mm Hg for 3 months ([4]; 30 mg group (22 patients)): 11 patients
duration of IOP reductions after a single administration ([4]; p<0.05 for all concentrations relative to vehicle at month 3, ANOVA): ≥ 3 months
mean IOP decrease at 3 months (percent) [5]: 38.5%+/−21%
time at which IOP-lowering effects peaked [5]: approximately one
clinically significant adverse events ([5]; followed 12 months): No clinically significant adverse events occurred
duration of effectiveness ([5]; followed 12 months): ≥ 12 months
patients with >25% IOP decrease at 3 months ([5]; prior glaucoma medications unchanged, six subjects, IOP>=23 mmHg): Five of six
mean IOP at 3 months [5, 8]: 16.4+/−6 mm Hg
mean IOP decrease at 3 months [5, 8]: 10.8+/−7.0 mmHg
patients whose prior glaucoma medications were discontinued due to IOP-lowering effect ([5]; six subjects): two

CCN[C@H]1CN(CCCOC)S(=O)(=O)c2sc(S(N)(=O)=O)cc21 [brinzolamide]
maximum IOP lowering from baseline ([6]; 1% suspension topically once per day for seven days): 11.1%
Mean change in IOP ([6]; 1% suspension topically once per day for seven days, mean pretreatment IOP 28.37 mm Hg): −2.48 mm Hg
time of peak levels of IOP change ([6]; both topical and subtenon's groups): ≤ 3 days
maximum percent IOP lowering ([6]; one anterior sub-Tenon's administration of 800 μl 1% suspension): 15.9%
Mean change in IOP ([6]; one anterior sub-Tenon's administration of 800 μl 1% suspension, mean pretreatment IOP 27.44 mm Hg): −1.85 mm Hg
mean percent IOP change from baseline compared to BSS control ([6]; subtenon's injection group): statistically lower at all points
mean percent IOP change from baseline compared to BSS control ([6]; topical administration group): statistically lower at all points

CC1(C)O[C@@H]2C[C@H]3[C@@H]4CCC5=CC(=O)C=C[C@]5(C)[C@@]4(F)[C@@H](O)C[C@]3(C)[C@]2(C(=O)CO)O1 [triamcinolone, triamcinolone acetonide]
IOP reached [7]: ~60 mm Hg
earliest onset of IOP elevation [7]: 4 days
